In ChEMBL document CHEMBL4800728, “Data for DCP probe JNJ-54119936” (2021):

Tests used:
[1] = molecular target: Histamine H1 receptor (Homo sapiens) (UniProt P35367); assay: H1 (h) CEREP screen; conditions: Compound concentration 1.0 uM
[2] = molecular target: Kappa-type opioid receptor (Homo sapiens) (UniProt P41145); conditions: Compound concentration 10.0 uM
[3] = molecular target: 5-hydroxytryptamine receptor 1A (Homo sapiens) (UniProt P08908); conditions: Compound concentration 10.0 uM
[4] = molecular target: Casein kinase I isoform epsilon (Homo sapiens) (UniProt P49674); assay: CK1epsilon Invitrogen kinase panel; conditions: Compound concentration 10.0 uM
[5] = molecular target: T1, CAR (nuclear receptor subfamily 1 group I member 3) (Homo sapiens, UniProt Q14994); assay: CAR Indigo Bioscience nuclear receptor screen
T1 sequence (Q14994 whole entry): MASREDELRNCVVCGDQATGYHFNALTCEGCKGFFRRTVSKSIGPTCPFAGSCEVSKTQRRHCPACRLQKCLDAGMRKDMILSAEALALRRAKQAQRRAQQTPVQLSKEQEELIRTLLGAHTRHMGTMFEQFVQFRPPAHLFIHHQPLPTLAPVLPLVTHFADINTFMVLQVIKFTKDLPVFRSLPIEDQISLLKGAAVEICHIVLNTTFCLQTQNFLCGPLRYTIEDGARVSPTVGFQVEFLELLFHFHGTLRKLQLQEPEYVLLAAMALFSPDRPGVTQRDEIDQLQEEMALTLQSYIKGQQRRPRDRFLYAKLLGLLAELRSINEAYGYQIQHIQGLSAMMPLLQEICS

Chain of Kappa-type opioid receptor (Homo sapiens) (P41145 whole entry): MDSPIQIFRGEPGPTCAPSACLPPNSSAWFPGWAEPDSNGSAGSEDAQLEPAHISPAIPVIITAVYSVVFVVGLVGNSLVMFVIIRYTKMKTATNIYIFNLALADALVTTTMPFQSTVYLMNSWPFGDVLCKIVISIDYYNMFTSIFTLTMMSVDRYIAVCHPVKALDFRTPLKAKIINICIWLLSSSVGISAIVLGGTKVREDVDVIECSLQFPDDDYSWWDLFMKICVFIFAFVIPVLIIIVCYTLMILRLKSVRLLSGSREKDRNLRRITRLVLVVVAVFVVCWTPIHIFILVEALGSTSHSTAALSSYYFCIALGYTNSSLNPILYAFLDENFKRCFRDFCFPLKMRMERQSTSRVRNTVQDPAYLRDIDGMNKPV
Chain of Histamine H1 receptor (Homo sapiens) (P35367 whole entry): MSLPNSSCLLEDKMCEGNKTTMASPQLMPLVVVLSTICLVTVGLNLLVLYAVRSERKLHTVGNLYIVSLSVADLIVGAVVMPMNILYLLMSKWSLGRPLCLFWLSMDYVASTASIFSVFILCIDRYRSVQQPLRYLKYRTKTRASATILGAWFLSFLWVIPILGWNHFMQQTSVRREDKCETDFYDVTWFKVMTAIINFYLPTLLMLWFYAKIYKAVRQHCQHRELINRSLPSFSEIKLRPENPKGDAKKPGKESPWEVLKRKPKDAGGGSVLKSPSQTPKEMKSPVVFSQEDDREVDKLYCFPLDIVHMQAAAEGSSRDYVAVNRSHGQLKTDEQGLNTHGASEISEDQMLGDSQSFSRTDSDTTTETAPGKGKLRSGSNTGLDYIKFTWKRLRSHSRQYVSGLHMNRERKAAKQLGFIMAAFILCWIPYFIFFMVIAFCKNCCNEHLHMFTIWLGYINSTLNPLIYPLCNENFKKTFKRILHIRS
Chain of Casein kinase I isoform epsilon (Homo sapiens) (P49674 whole entry, looked up, canonical isoform): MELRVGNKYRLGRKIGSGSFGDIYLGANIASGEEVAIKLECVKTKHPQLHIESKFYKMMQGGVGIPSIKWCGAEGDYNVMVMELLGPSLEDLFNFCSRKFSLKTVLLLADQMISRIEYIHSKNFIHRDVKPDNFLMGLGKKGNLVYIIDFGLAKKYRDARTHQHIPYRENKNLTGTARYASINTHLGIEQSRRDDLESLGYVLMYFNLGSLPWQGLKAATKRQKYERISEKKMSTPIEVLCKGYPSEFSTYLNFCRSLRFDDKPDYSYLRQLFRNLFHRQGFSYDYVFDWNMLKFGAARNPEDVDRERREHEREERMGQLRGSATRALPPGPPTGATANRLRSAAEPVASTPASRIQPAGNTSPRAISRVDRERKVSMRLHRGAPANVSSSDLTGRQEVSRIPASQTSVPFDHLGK
Chain of 5-hydroxytryptamine receptor 1A (Homo sapiens) (P08908 whole entry, canonical isoform): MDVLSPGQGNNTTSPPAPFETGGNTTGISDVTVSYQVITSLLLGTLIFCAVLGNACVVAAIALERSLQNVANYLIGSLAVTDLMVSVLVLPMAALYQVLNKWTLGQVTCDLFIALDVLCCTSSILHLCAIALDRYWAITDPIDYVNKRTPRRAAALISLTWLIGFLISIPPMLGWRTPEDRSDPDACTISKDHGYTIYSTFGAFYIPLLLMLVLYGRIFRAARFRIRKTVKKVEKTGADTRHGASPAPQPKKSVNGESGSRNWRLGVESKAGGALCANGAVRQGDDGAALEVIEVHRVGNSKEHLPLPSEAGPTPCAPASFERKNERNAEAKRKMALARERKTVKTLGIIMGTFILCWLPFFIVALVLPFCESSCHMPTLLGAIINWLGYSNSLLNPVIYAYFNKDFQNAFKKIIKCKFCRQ

inhibition [1]: 10%
inhibition [2]: -6%
inhibition [3]: 16.6%
inhibition [4]: 0%
inhibition at 0.3 µM ([5]; compound concentration 0.3 uM): -0.121% (not active)
inhibition at 1 µM ([5]; compound concentration 1 uM): -0.752% (not active)
inhibition at 3 µM ([5]; compound concentration 3 uM): 2.37% (not active)
Compound: COc1nc2ccc([C@@](O)(c3ccccc3)C3CCN(C(C)=O)CC3)cc2c(Cl)c1Cc1ccc(-n2cccn2)cc1 [JNJ-54119936]
